Results: US20040082635A1, “Fused cyclic compounds and medicinal use thereof” (priority 2001, published 2004)
Structures can show the parent of a compound that is named as a salt.

How the values were obtained:
HCV polymerase = target: T1, HCV polymerase (Hepatitis C virus genotype 1b, UniProt P26663); test: biochemical; settings: read-out: HCV polymerase inhibitory activity IC50
T1 construct: a region encoding NS5B (591 amino acids; J Virol 1991 Mar, 65(3), 1105-13) was amplified by PCR; 6 His (N); made in house; host or cells: Escherichia coli

HCV type 1a = test: inhibitory activity on HCV type 1a (statement only, no method); settings: in words
HCV type 1b = test: inhibitory activity on HCV type 1b (statement only, no method); settings: in words
[1] = blood concentration when administered to an animal (statement only, no method); type: in vivo; settings: when administered as a pharmaceutical agent to an animal; in words

T1 sequence (P26663 2420-3010): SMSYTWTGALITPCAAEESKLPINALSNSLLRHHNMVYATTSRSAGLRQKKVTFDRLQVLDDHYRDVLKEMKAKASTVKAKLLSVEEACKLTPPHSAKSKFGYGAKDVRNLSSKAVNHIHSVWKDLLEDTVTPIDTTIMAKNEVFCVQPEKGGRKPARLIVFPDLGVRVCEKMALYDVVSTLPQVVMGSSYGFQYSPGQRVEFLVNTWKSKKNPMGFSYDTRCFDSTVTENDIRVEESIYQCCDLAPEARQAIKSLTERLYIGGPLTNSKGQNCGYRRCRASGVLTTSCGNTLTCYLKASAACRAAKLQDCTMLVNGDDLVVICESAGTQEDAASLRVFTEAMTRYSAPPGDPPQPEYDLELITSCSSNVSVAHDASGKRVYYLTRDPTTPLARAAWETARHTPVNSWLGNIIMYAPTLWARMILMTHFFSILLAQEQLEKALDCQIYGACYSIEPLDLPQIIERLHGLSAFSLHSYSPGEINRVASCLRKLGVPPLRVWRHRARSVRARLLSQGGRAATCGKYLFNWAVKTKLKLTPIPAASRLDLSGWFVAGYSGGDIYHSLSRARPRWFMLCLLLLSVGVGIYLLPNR

| SMILES | melting point | IC50 (HCV polymerase) | also measured |
| --- | --- | --- | --- |
| O=C(O)c1ccc2c(c1)nc(-c1ccc(Oc3cccc(Br)c3)cc1)n2C1CCCCC1 [Example 2, 2-[4-(3-bromophenoxy)phenyl]-1-cyclohexylbenzimidazole-5-carboxylic acid] | 255 to 256 °C | 79 nM | – |
| Cc1nc(-c2ccc(F)cc2)c(COc2ccc(-c3nc4cc(C(=O)O)ccc4n3C3CCCCC3)cc2)s1 [Example 17, 1-cyclohexyl-2-{4-[{4-(4-fluorophenyl)-2-methyl-5-thiazolyl}methoxy]phenyl}benzimidazole-5-carboxylic acid] | 196 to 198 °C | 47 nM | – |
| O=C(O)c1ccc2c(c1)nc(-c1ccc(OCc3cc(Cl)ccc3-c3ccc(Cl)cc3)cc1)n2C1CCCCC1 [Example 6] | 243 to 244 °C | – | – |
| COc1ccc(-c2ccc(Cl)cc2)c(COc2ccc(-c3nc4cc(C(=O)O)ccc4n3C3CCCCC3)cc2)c1 [Example 9, 2-{4-[2-(4-chlorophenyl)-5-methoxybenzyloxy]phenyl}-1-cyclohexylbenzimidazole-5-carboxylic acid] | 248 to 249 °C | 19 nM | – |
| NC(=O)c1ccc2c(c1)nc(-c1ccc(OCc3ccccc3)cc1)n2C1CCCC1 | 232 to 233 °C | – | – |
| Cl.O=C(O)c1ccc2c(c1)nc(-c1ccc(OCc3cc(N4CCCC4=O)ccc3-c3ccc(Cl)cc3)cc1F)n2C1CCCCC1 [2-{4-[2-(4-chlorophenyl)-5-(2-oxopyrrolidin-1-yl)benzyloxy]-2-fluorophenyl}-1-cyclohexylbenzimidazole-5-carboxylic acid hydrochloride] | – | – | inhibitory activity on HCV type 1a (HCV type 1a): high inhibitory activity; inhibitory activity on HCV type 1b (HCV type 1b): high inhibitory activity; blood concentration [1]: high blood concentration |
| O=C(O)c1ccc2c(c1)nc(-c1ccc(Oc3cccc(OCc4ccncc4)c3)cc1)n2C1CCCCC1 [Example 30, 1-cyclohexyl-2-{4-[3-(4-pyridylmethoxy)phenyloxy]-phenyl}benzimidazole-5-carboxylic acid] | 235 to 237 °C | 52 nM | – |
| O=C(O)c1ccc2c(c1)nc(-c1ccc(Oc3cccc(-c4cccc(Cl)c4)c3)cc1)n2C1CCCCC1 [Example 26, 2-{4-[3-(3-chlorophenyl)phenoxy]phenyl}-1-cyclohexylbenzimidazole-5-carboxylic acid] | 253 to 254 °C | 33 nM | – |
| O=C(O)c1ccc2c(c1)nc(-c1ccc(OC(c3cccc(F)c3)c3cccc(F)c3)cc1F)n2C1CCCCC1 [Example 20, 2-{4-(bis[3-fluorophenyl]methoxy)-2-fluorophenyl}-1-cyclohexylbenzimidazole-5-carboxylic acid] | 242 to 243 °C | 42 nM | – |
| Cl.O=C(O)c1ccc2c(c1)nc(-c1ccc(OCc3cc(N4CCCC4=O)ccc3-c3ccc(Cl)cc3)cc1F)n2C1CCCCC1 | 243 to 246 °C | – | – |
| CCC(=O)N(C)c1ccc(-c2ccc(Cl)cc2)c(COc2ccc(-c3nc4cc(C(=O)O)ccc4n3C3CCCCC3)c(F)c2)c1 [Example 466, 2-[4-{2-(4-chlorophenyl)-5-[N-(ethylcarbonyl)-N-methylamino]-benzyloxy}-2-fluorophenyl]-1-cyclohexylbenzimidazole-5-carboxylic acid hydrochloride] | – | 23 nM | – |
| O=C(O)c1ccc(-c2ccc(Cl)cc2)c(COc2ccc(-c3nc4cc(C(=O)O)ccc4n3C3CCCCC3)cc2)c1 [Example 189, 2-{4-[3-carboxy-6-(4-chlorophenyl)benzyloxy]phenyl}-1-cyclohexylbenzimidazole-5-carboxylic acid] | – | 17 nM | – |
| CC(C)CC(=O)c1ccc(-c2ccc(Cl)cc2)c(COc2ccc(-c3nc4cc(C(=O)O)ccc4n3C3CCCCC3)cc2)c1 [Example 346, 2-{4-[2-(4-chlorophenyl)-5-(isobutylcarbonyl)benzyloxy]phenyl}-1-cyclohexylbenzimidazole-5-carboxylic acid] | – | 25 nM | – |
| O=C(O)c1ccc2c(c1)nc(-c1ccc(OC[C@@H]3CCCN3C(=O)OCc3ccccc3)cc1)n2C1CCCCC1 [Example 185, 2-{4-[{(2S)-1-benzyloxycarbonyl-2-pyrrolidinyl}methoxy]phenyl}-1-cyclohexylbenzimidazole-5-carboxylic acid] | – | 110 nM | – |
| Cc1nc(COc2ccc(-c3nc4cc(C(=O)O)ccc4n3C3CCCCC3)cc2)c(-c2ccc(Cl)cc2)s1 [Example 206, 2-{4-[{5-(4-chlorophenyl)-2-methyl-4-thiazolyl}methoxy]phenyl}-1-cyclohexylbenzimidazole-5-carboxylic acid] | – | 50 nM | – |
| CN(C)C(=O)c1cc(COc2ccc(-c3nc4cc(C(=O)O)ccc4n3C3CCCCC3)c(F)c2)c(-c2ccc(F)cc2)s1 [Example 431, 2-{4-[{2-(4-fluorophenyl)-5-(dimethylcarbamoyl)thiophen-3-yl}methoxy]-2-fluorophenyl}-1-cyclohexylbenzimidazole-5-carboxylic acid hydrochloride] | – | 15 nM | – |
| N/C(=N\O)c1ccc(-c2ccc(Cl)cc2)c(COc2ccc(-c3nc4cc(C(=O)O)ccc4n3C3CCCCC3)c(F)c2)c1 [Example 373, 2-{4-[2-(4-chlorophenyl)-5-(N-hydroxyamidino)benzyloxy]-2-fluorophenyl}-1-cyclohexylbenzimidazole-5-carboxylic acid dihydrochloride] | – | 13 nM | – |
| O=C(O)c1ccc2c(c1)nc(-c1ccc(OCc3cc(Cl)cc(Cl)c3)cc1)n2C1CCCCC1 [Example 81, 1-cyclohexyl-2-[4-(3,5-dichlorobenzyloxy)phenyl]benzimidazole-5-carboxylic acid] | – | 180 nM | – |
| O=C(O)c1ccc2c(c1)nc(-c1ccc(OC(Cc3ccccc3)Cc3ccccc3)cc1)n2C1CCCCC1 [Example 90, 1-cyclohexyl-2-[4-(dibenzylmethoxy)phenyl]benzimidazole-5-carboxylic acid] | – | 200 nM | – |
| O=C(O)c1ccc2c(c1)nc(-c1ccc(OCc3cc(N4CCOC4=O)ccc3-c3ccc(Cl)cc3)cc1F)n2C1CCCCC1 [Example 423, 2-{4-[2-(4-chlorophenyl)-5-(2-oxooxazolidin-3-yl)benzyloxy]-2-fluorophenyl}-1-cyclohexylbenzimidazole-5-carboxylic acid hydrochloride] | – | 17 nM | – |
| O=C(O)c1ccc2c(c1)nc(-c1ccc(OCc3ccc(C(=O)NCc4ccncc4)cc3-c3ccc(Cl)cc3)cc1)n2C1CCCCC1 [Example 356, 2-{4-[2-(4-chlorophenyl)-4-{(4-pyridylmethyl)carbamoyl}-benzyloxy]phenyl}-1-cyclohexylbenzimidazole-5-carboxylic acid] | – | 16 nM | – |
| COC1CCN(C(=O)c2ccc(-c3ccc(Cl)cc3)c(COc3ccc(-c4nc5cc(C(=O)O)ccc5n4C4CCCCC4)cc3)c2)CC1 [Example 333, 2-{4-[2-(4-chlorophenyl)-5-(4-methoxypiperidinocarbonyl)-benzyloxy]phenyl}-1-cyclohexylbenzimidazole-5-carboxylic acid hydrochloride] | – | 16 nM | – |
| NC(=O)Nc1ccc(-c2ccc(Cl)cc2)c(COc2ccc(-c3nc4cc(C(=O)O)ccc4n3C3CCCCC3)c(F)c2)c1 [Example 393, 2-{4-[2-(4-chlorophenyl)-5-ureidobenzyloxy]-2-fluorophenyl}-1-cyclohexylbenzimidazole-5-carboxylic acid hydrochloride] | – | 11 nM | – |
| O=C(O)c1ccc2c(c1)nc(-c1ccc(OCc3cc(S(=O)(=O)N4CCC(O)CC4)ccc3-c3ccc(Cl)cc3)cc1)n2C1CCCCC1 [Example 359, 2-{4-[2-(4-chlorophenyl)-5-(4-hydroxypiperidin-1-ylsulfonyl)benzyloxy]phenyl}-1-cyclohexylbenzimidazole-5-carboxylic acid hydrochloride] | – | 15 nM | – |
| O=C(O)c1ccc2c(c1)nc(-c1ccc(OC3CCCN(Cc4ccc(Cl)cc4)C3)cc1)n2C1CCCCC1 (centres unmarked) [Example 219, 2-{4-[1-(4-chlorobenzyl)-3-piperidyloxy]phenyl}-1-cyclohexylbenzimidazole-5-carboxylic acid] | – | 130 nM | – |
| Cc1nc(-c2ccc(-c3ccc(Cl)cc3)c(COc3ccc(-c4nc5cc(C(=O)O)ccc5n4C4CCCCC4)cc3)c2)cs1 [Example 347, 2-{4-[2-(4-chlorophenyl)-5-(2-methylthiazol-4-yl)benzyloxy]-phenyl}-1-cyclohexylbenzimidazole-5-carboxylic acid] | – | 22 nM | – |
| CCCOc1ccccc1Oc1ccc(-c2nc3cc(C(=O)O)ccc3n2C2CCCCC2)cc1 [Example 110, 1-cyclohexyl-2-[4-(2-propoxyphenoxy)phenyl]benzimidazole-5-carboxylic acid] | – | 240 nM | – |
